Target: T1, human RORγ-LBD (Homo sapiens, UniProt P51449)
T1 construct: made in house; host or cells: E. coli (BL-21)
T1 sequence (P51449 262-518): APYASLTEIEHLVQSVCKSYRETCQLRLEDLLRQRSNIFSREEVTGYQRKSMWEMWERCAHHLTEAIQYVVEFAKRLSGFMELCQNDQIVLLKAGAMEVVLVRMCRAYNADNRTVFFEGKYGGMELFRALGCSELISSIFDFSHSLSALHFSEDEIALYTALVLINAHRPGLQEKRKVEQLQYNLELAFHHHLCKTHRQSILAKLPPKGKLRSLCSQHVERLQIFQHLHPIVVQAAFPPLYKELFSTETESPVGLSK
Experiment: ROR gamma coactivator peptide recruitment Alphascreen assay (RORγ-LBD binding to GRIP1 coactivator peptide)
Assay type: biochemical
Conditions: 5 nM human RORγ-LBD, 30 nM 7-β-hydroxycholesterol, 50 nM biotinylated GRIP1 coactivator peptide, overnight incubation at room temperature; read-out: result (pIC50, RORγ coactivator peptide recruitment Alphascreen assay) (converted)
Procedure, shortened: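 Alphascreen proximity read-out after overnight room-temperature incubation, yielding pIC50 from 1-in-2 compound series (2.5% DMSO final). Mixture: 50 nM biotin-GRIP1 peptide, 30 nM 7-β-hydroxycholesterol agonist, 5 nM recombinant 6×His:Flag human RORγ-LBD (aa 262-518), 50 mM HEPES pH 7.4.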

| Compound | IC50 |
| --- | --- |
| CC1(C)CC(CN(CC(=O)c2ccccc2Br)C(=O)c2cnn([C@H]3CC[C@@H](C(=O)O)CC3)c2C(F)(F)F)C1 [Example 585, cis-4-(4-((2-(2-bromophenyl)-2-oxoethyl)((3,3-dimethylcyclobutyl)methyl)carbamoyl)-5-(trifluoromethyl)-1H-pyrazol-1-yl)cyclohexanecarboxylic acid] | 69.2 nM |
| C[C@]1(C(=O)O)CC[C@H](n2ncc(C(=O)N3C[C@H](C4CCCCC4)C[C@H]3C(=O)c3c(Cl)cncc3Cl)c2C(F)(F)F)CC1 (single isomer, unassigned) [Example 823] | 9120 nM |
| O=C(c1cnn([C@H]2CC[C@H](C(=O)O)CC2)c1C(F)(F)F)N(CCc1c(Cl)cccc1Cl)Cc1ccc(Cl)cc1 [Example 501, trans-4-(4-((4-chlorobenzyl)(2-(2,6-dichlorophenyl)ethyl)carbamoyl)-5-(trifluoromethyl)-1H-pyrazol-1-yl)cyclohexanecarboxylic acid] | 3.8 nM |
| CC1(C)CCC(CN(CCc2c(Cl)cncc2Cl)C(=O)c2cnn([C@H]3CC[C@H](C(=O)O)CC3)c2C(F)(F)F)CC1 [Example 546, trans-4-(4-((2-(3,5-dichloro-4-pyridinyl)ethyl)((4,4-dimethylcyclohexyl)methyl)carbamoyl)-5-(trifluoromethyl)-1H-pyrazol-1-yl)cyclohexanecarboxylic acid] | 11.2 nM |
| C[C@@H]1C[C@@H](n2ncc(C(=O)N(CC(=O)c3c(Cl)cncc3Cl)CC(C)(C)F)c2C(F)(F)F)CC[C@@H]1C(=O)O [Example 829, (1S,2R,4S)-4-(4-((2-(3,5-dichloro-4-pyridinyl)-2-oxoethyl)(2-fluoro-2-methylpropyl)carbamoyl)-5-(trifluoromethyl)-1H-pyrazol-1-yl)-2-methylcyclohexanecarboxylic acid] | 9.55 nM |
| C[C@]1(CC(=O)O)CC[C@@H](n2ncc(C(=O)N(CC(=O)c3c(Cl)cncc3Cl)Cc3cc(F)cc(F)c3)c2C(F)(F)F)CC1 [Example 790, (cis-4-(4-((2-(3,5-dichloro-4-pyridinyl)-2-oxoethyl)(3,5-difluorobenzyl)carbamoyl)-5-(trifluoromethyl)-1H-pyrazol-1-yl)-1-methylcyclohexyl)acetic acid] | 34.7 nM |

Further lines, results first:

| IC50 | Compound |
| --- | --- |
| 4.79 nM | CC(C)CCN(CC(=O)c1c(Cl)cccc1Cl)C(=O)c1cnn([C@H]2CC[C@](C)(C(=O)O)CC2)c1C(F)(F)F [Example 752, trans-4-(4-((2-(2,6-dichlorophenyl)-2-oxoethyl)(3-methylbutyl)carbamoyl)-5-(trifluoromethyl)-1H-pyrazol-1-yl)-1-methylcyclohexanecarboxylic acid] |
| 17 nM | C[C@]1(C(=O)O)CC[C@H](n2ncc(C(=O)N(CC(=O)c3c(Cl)cncc3Cl)C[C@]34CC[C@H](CC3)O4)c2C(F)(F)F)CC1 [Example 853, trans-4-(4-((2-(3,5-dichloro-4-pyridinyl)-2-oxoethyl)((1s,4s)-7-oxabicyclo[221]hept-1-ylmethyl)carbamoyl)-5-(trifluoromethyl)-1H-pyrazol-1-yl)-1-methylcyclohex anecarboxylic acid] |
| 7.41 nM | Cc1cc(Cl)c(C(=O)CN(CC2CCC(C)(C)CC2)C(=O)c2cnn([C@H]3CC[C@](C)(C(=O)O)CC3)c2C(F)(F)F)c(Cl)c1 [Example 532, trans-4-(4-((2-(2,6-dichloro-4-methylphenyl)-2-oxoethyl)((4,4-dimethylcyclohexyl)methyl)carbamoyl)-5-(trifluoromethyl)-1H-pyrazol-1-yl)-1-methylcyclohexanecarboxylic acid] |
| 7.94 nM | Cc1cc(C)c(C(=O)CN(C(=O)c2cnn([C@H]3CC[C@](C)(C(=O)O)CC3)c2C(F)(F)F)[C@H]2C[C@@H]3[C@H](C2)C3(C)C)c(Cl)n1 [Example 757, trans-4-(4-((2-(2-chloro-4,6-dimethyl-3-pyridinyl)-2-oxoethyl)((1R,3r,5S)-6,6-dimethylbicyclo[3.1.0]hex-3-yl)carbamoyl)-5-(trifluoromethyl)-1H-pyrazol-1-yl)-1-methylcyclohexanecarboxylic acid] |
| 11.2 nM | Cc1cc(F)c(C(=O)CN(C[C@]2(C)CCCO2)C(=O)c2cnn([C@H]3CC[C@](C)(C(=O)O)CC3)c2C(F)(F)F)c(Cl)c1 [Example 805, trans-4-(4-((2-(2-chloro-6-fluoro-4-methylphenyl)-2-oxoethyl)(((2S)-2-methyltetrahydro-2-furanyl)methyl)carbamoyl)-5-(trifluoromethyl)-1H-pyrazol-1-yl)-1-methylcyclohexanecarboxylic acid] |
| 30.2 nM | COC1(CN(CC(=O)c2c(Cl)cncc2Cl)C(=O)c2cnn([C@H]3CC[C@](C)(C(=O)O)CC3)c2C(F)(F)F)CC1 [Example 844, trans-4-(4-((2-(3,5-dichloro-4-pyridinyl)-2-oxoethyl)((1-methoxycyclopropyl)methyl)carbamoyl)-5-(trifluoromethyl)-1H-pyrazol-1-yl)-1-methylcyclohexanecarboxylic acid] |
| 251 nM | Cc1cc(Cl)c(C(=O)CN(CC2CCC(C)(C)CC2)C(=O)c2cnn([C@H]3CC[C@](C)(C(=O)O)CC3)c2C(F)(F)F)c(Cl)n1 [Example 835, trans-4-(4-((2-(2,4-dichloro-6-methyl-3-pyridinyl)-2-oxoethyl)((4,4-dimethylcyclohexyl)methyl)carbamoyl)-5-(trifluoromethyl)-1H-pyrazol-1-yl)-1-methylcyclohexanecarboxylic acid] |
